Reference: patent US6407094B1, “Glutamate receptor antagonists” (Hoffmann-la Roche Inc., priority 1999, dated 2002)

Assays:
[1] = molecular target: T1, rat mGlu2 receptor (Rattus norvegicus, UniProt P31421); experiment: [3H]-LY354740 binding on mGlu2 transfected CHO cell membranes
T1 construct: expressed in transfected cells; host or cells: CHO cells, stably transfected with pcD1mGR2 (pcDNA I-amp), G-418 selected; membranes used
T1 sequence (P31421 19-872): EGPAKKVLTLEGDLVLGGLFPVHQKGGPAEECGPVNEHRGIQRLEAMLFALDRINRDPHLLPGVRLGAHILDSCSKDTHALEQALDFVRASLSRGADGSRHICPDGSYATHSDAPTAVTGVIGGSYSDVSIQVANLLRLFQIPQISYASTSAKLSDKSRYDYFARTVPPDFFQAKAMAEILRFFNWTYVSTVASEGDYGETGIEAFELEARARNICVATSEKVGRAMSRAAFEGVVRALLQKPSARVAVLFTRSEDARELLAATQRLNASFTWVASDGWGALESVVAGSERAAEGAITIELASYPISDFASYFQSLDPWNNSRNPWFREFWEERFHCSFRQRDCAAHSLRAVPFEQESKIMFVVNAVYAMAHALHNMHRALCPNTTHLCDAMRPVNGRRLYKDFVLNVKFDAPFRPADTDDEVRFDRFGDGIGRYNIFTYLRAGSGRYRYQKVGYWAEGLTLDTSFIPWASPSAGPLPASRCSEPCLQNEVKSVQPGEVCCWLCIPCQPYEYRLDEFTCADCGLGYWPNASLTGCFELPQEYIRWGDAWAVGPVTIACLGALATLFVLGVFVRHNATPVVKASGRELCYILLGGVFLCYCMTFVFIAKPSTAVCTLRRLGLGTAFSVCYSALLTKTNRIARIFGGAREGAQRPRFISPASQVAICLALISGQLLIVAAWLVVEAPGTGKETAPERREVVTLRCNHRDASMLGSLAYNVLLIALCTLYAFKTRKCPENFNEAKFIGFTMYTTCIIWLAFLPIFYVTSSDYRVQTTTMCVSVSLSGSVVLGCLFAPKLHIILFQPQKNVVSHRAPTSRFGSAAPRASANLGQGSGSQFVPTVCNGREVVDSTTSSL

`O=C1CC(c2cccc(-n3ccnc3)c2)=Nc2cc(O)c(-c3ccc(F)cc3)cc2N1` [Example 61, 8-(4-Fluoro-phenyl)-7-hydroxy-4-(3-imidazol-1-yl-phenyl)-1,3-dihydro-benzo[b][1,4]diazepin-2-one] gave a melting point of 250 °C and a Ki [1] of 7 nM.
For `COc1cc2c(cc1-c1ccccc1F)NC(=O)CC(c1cccc(-n3ccnc3C)c1)=N2` [Example 68, 8-(2-Fluoro-phenyl)-7-methoxy-4-[3-(2-methyl-imidazol-1-yl)-phenyl]-1,3-dihydro-benzo[b][1,4]diazepin-2-one], the melting point was 220 to 222 °C and the Ki [1] was 138 nM.
`COc1cc2c(cc1-c1ccccc1F)NC(=O)CC(c1ccc(C#N)s1)=N2` [Example 69] gave a melting point of over 250 °C and a Ki [1] of 168 nM.
Work on `COc1cc2c(cc1-c1ccccc1F)NC(=O)CC(c1ccnc(C#N)c1)=N2` [Example 71, 4-[7-(2-Fluoro-phenyl)-8-methoxy-4-oxo-4,5-dihydro-3H-benzo[b][1,4]diazepin-2-yl)-pyridine-2-carbonitrile] yielded a melting point of 240 to 242 °C and a Ki [1] of 33 nM.
`O=C1CC(c2cccc(-n3ccnn3)c2)=Nc2cc(O)c(-c3ccccc3F)cc2N1` [Example 75, 8-(2-Fluoro-phenyl)-7-hydroxy-4-(3-[1,2,3]triazol-1-yl-phenyl)-1,3-dihydro-benzo[b][1,4]diazepin-2-one] showed a melting point of over 250 °C and a Ki [1] of 28 nM.
With `Cc1nccn1-c1cccc(C2=Nc3cc(O)c(-c4ccccc4F)cc3NC(=O)C2)c1` [Example 79, 8-(2-Fluoro-phenyl)-7-hydroxy-4-[3-(2-methyl-imidazol-1-yl)-phenyl]-1,3-dihydro-benzo[b][1,4]diazepin-2-one] the melting point was over 250 °C and the Ki [1] was 108 nM.
`CSc1nccn1-c1cccc(C2=Nc3cc(O)c(-c4ccccc4F)cc3NC(=O)C2)c1` [Example 81, 8-(2-Fluoro-phenyl)-7-hydroxy-4-[3-(2-methylsulfanyl-imidazol-1-yl)-phenyl]-1,3-dihydro-benzo[b][1,4]diazepin-2-one] showed a melting point of over 250 °C and a Ki [1] of 21 nM.
For `COc1cc2c(cc1-c1cc(F)ccc1F)NC(=O)CC(c1cccc(-n3ccnn3)c1)=N2` [Example 83, 8-(2,5-Difluoro-phenyl)-7-methoxy-4-(3-[1,2,3]triazol-1-yl-phenyl)-1,3-dihydro-benzo[b][1,4]diazepin-2-one], the melting point was 241 °C and the Ki [1] was 12 nM.
`Cc1cc(-c2cccc(C3=Nc4cc(O)c(-c5ccccc5F)cc4NC(=O)C3)c2)on1` [Example 89, 8-(2-Fluoro-phenyl)-7-hydroxy-4-[3-(3-methyl-isoxazol-5-yl)-phenyl]-1,3-dihydro-benzo[b][1,4]diazepin-2-one] showed a melting point of 237 °C and a Ki [1] of 15 nM.
For `N#Cc1cccc(C2=Nc3cc(O)c(-c4cc(F)ccc4F)cc3NC(=O)C2)c1` [Example 90, 3-[7-(2,5-Difluoro-phenyl)-8-hydroxy-4-oxo-4,5-dihydro-3H-benzo[b][1,4]diazepin-2-yl]-benzonitrile], the melting point was over 250 °C and the Ki [1] was 6 nM.
For `O=C1CC(c2cccc(-n3ccnc3)c2)=Nc2cc(O)c(C#Cc3ccc(F)cc3)cc2N1` [Example 91, 8-(4-Fluoro-phenylethynyl)-7-hydroxy-4-(3-imidazol-1-yl-phenyl)-1,3-dihydro-benzo[b][1,4]diazepin-2-one], the melting point was 247 °C and the Ki [1] was 13 nM.
